“Also recorded” adds a separate entry of the source. Read-outs that look alike come from different tables or passages of the source.
Assays:
K. pneumoniae [1] = test: Checkerboard assay, mean FICI; format: cell-based
Protocol: (§1) All MIC determinations including those performed in the checkerboard assay were done in cation-adjusted Mueller-Hinton broth (purchased from Becton Dickinson, Oxford UK).
(§2) Initial MIC data were determined by microbroth dilution methods as recommended by CLSI (2012b). Checkerboards were made in accordance with the method given by Pillai et. al., ? Antimicrobial Combinations in Antibiotics, LABORATORY MEDICINE (Lorian Ed., 3rd Ed. (2003)) p. 365-440 as per standard microbroth dilution tests but with agents in combination. […] A final avibactam concentration of 4 mg/L was used throughout the study. Antibacterial agents were combined into microtitre plates using the Evolution III liquid handling system.
(§3) Checkerboard plates were inoculated and incubated in accordance with CLSI guidelines (2012b) at 35±2° C. in ambient air for 16-20 h. MICs were recorded the following day as the lowest concentration or combination of concentrations required to inhibit all visible growth. From the MIC data, FICIs were calculated for each checkerboard according to the method of Meletiadis et. al., Defining Fractional Inhibitory Concentration Index Cutoffs for Additive Interactions Based on Self-Drug Additive Combinations, Monte Carlo Simulation Analysis and in vitro-in vivo Correlation Data for Antifungal Drug Combinations Against Aspergillus fumigatus, AAC 54:602-09 (2010).
(§4) FICI=FICA+FICB=(CA/MICA)+(CB/MICB)
(§5) As each checkerboard gives a number of FICI values, an arithmetic mean is calculated from all values to give the mean FICI for two agents combined against one isolate. Mean FICIs were interpreted by the following criteria given by Odds (2003) which are now the accepted criteria by most journals: […]

E. faecalis = test: Checkerboard assay, mean FICI; format: cell-based
Protocol: as §1, §2, §3, §4, §5

E. coli = test: Checkerboard assay, mean FICI; format: cell-based
Protocol: as §1, §2, §3, §4, §5

Gram-positive isolates = test: MIC alone compared with MIC in presence of Cmax and 0.5×Cmax of colistin, all Gram-positive isolates; format: cell-based; conditions: with Cmax and 0.5×Cmax of colistin
Description: A mean FICI was taken from each combination checkerboard and interpreted according to accepted criteria. […] Four highly-expressed AmpC, eight extended-spectrum beta-lactamase (ESBL) including two CTX-M-15 and five KPC producing Enterobacteriaceae and P. aeruginosa were included as well as representatives from each species with basal MICs. Three S. aureus and three E. faecalis were also included.

P. aeruginosa [2] = test: In vivo efficacy, ceftazidime directed ELF fT>MIC regimen, neutropenic lung infection model (ICR mice); design: species or system Pseudomonas aeruginosa; conditions: for Change log CFU Mean: 24 h
Protocol: It has been observed in surveillance studies that the MIC90 for ceftazidime-avibactam against P. aeruginosa is 8 μg/mL (10-12). Given this, there are few isolates with higher MICs and the number that would grow within the murine lung infection model is even less. […] Doses of the previous humanized regimen described above were […] throughout the dosing period and further pharmacokinetic studies were performed. […] Mice were euthanized and serum and BAL samples were collected, as described above, at predetermined times.
For these studies, 9 P. aeruginosa isolates were evaluated against the CAZ regimen in mice that yielded specific ELF fT>MIC. Doses were initiated 2 hours after inoculation of the test organisms ? and all doses were administered as 0.2 mL subcutaneous injections and consisted of three 8 hour dosing intervals (i.e. 24 hours). To serve as control animals, an additional group of mice were administered normal saline at the same volume, route, and frequency as the treatment regimen. The harvesting procedure for all study mice began with euthanization by CO2 exposure followed by cervical dislocation. After sacrifice, lungs were removed and individually homogenized in normal saline. Serial dilutions of the lung homogenate were plated on trypticase soy agar with 5% sheep blood for CFU determination. In addition to the above mentioned treatment and control groups, another group of 6 infected, untreated mice were harvested at the initiation of dosing and served as 0 h controls. Efficacy, designated as the change in bacterial density, was calculated as the change in log10 bacterial CFU obtained for treated mice after 24 h from that of that starting densities observed in 0 h control animals.

K. pneumoniae [3] = test: Initial MIC, microbroth dilution (CLSI), avibactam 4 mg/L; format: cell-based; conditions: Klebsiella pneumoniae
Protocol: as §1, §2

P. aeruginosa [4] = test: as above; format: cell-based; conditions: Pseudomonas aeruginosa
Protocol: as §1, §2

With CC(C)(O/N=C(\C(=O)N[C@@H]1C(=O)N2C(C(=O)[O-])=C(C[n+]3ccccc3)CS[C@H]12)c1csc(N)n1)C(=O)O [ceftazidime, (6R,7R)-7-[[(2Z)-2-(2-amino-1,3-thiazol-4-yl)-2-(1-hydroxy-2-methyl-1-oxopropan-2-yl)oxyiminoacetyl]amino]-8-oxo-3-(pyridin-1-ium-1-ylmethyl)-5-thia-1-azabicyclo[4.2.0]oct-2-ene-2-carboxylate pentahydrate] the “Mean FICI” value (K. pneumoniae [1]; with Col, isolate 10 K. pneumoniae TEM-4) was 0.85, the “Mean FICI” value (K. pneumoniae [1]; with Col, isolate 11 K. pneumoniae CTX-M-15) was 1.54 and the “Mean FICI” value (K. pneumoniae [1]; with Col, isolate 12 K. pneumoniae SHV-12) was 1.40. The “Mean FICI” value (K. pneumoniae [1]; with Col, isolate 14 K. pneumoniae KPC-3) was 1.05, the “Mean FICI” value (K. pneumoniae [1]; with Lev, isolate 9 K. pneumoniae Basal MICs) was 0.96 and the “Mean FICI” value (K. pneumoniae [1]; with Lev, isolate 10 K. pneumoniae TEM-4) was 1.13. For the same molecule, the “Mean FICI” value (K. pneumoniae [1]; with Tig, isolate 11 K. pneumoniae CTX-M-15) was 0.94, the “Mean FICI” value (K. pneumoniae [1]; with Tig, isolate 12 K. pneumoniae SHV-12) was 0.97 and the “Mean FICI” value (K. pneumoniae [1]; with Tig, isolate 13 K. pneumoniae KPC-3) was 1.99. For the same molecule, the “Mean FICI” value (K. pneumoniae [1]; with Tig, isolate 14 K. pneumoniae KPC-3) was 0.74, the “Mean FICI” value (K. pneumoniae [1]; with Tob, isolate 9 K. pneumoniae Basal MICs) was 1.55 and the “Mean FICI” value (K. pneumoniae [1]; with Tob, isolate 10 K. pneumoniae TEM-4) was 0.64. For the same molecule, the “Mean FICI” value (K. pneumoniae [1]; with Tob, isolate 11 K. pneumoniae CTX-M-15) was 1.05, the “Mean FICI” value (K. pneumoniae [1]; with Tob, isolate 12 K. pneumoniae SHV-12) was 1.04 and the “Mean FICI” value (K. pneumoniae [1]; with Tob, isolate 13 K. pneumoniae KPC-3) was 1.12. For the same molecule, the “Mean FICI” value (K. pneumoniae [1]; with Tob, isolate 14 K. pneumoniae KPC-3) was 0.91, the “Mean FICI” value (K. pneumoniae [1]; with Tob, isolate 15 K. pneumoniae KPC-2) was 1.05 and the “Mean FICI” value (E. faecalis; with Lev, isolate 25 E. faecalis Basal MICs) was 1.15. The “Mean FICI” value (E. faecalis; with Lev, isolate 26 E. faecalis Basal MICs) was 1.20, the “Mean FICI” value (E. faecalis; with Lev, isolate 27 E. faecalis Basal MICs) was 0.78 and the “Mean FICI” value (E. faecalis; with Lzd, isolate 25 E. faecalis Basal MICs) was 1.72. For the same molecule, the “Mean FICI” value (E. faecalis; with Lzd, isolate 26 E. faecalis Basal MICs) was 0.99, the “Mean FICI” value (E. faecalis; with Lzd, isolate 27 E. faecalis Basal MICs) was 1.64 and the “Mean FICI” value (E. faecalis; with Tig, isolate 25 E. faecalis Basal MICs) was 1.19. The “Mean FICI” value (E. faecalis; with Tig, isolate 26 E. faecalis Basal MICs) was 0.73, the “Mean FICI” value (E. faecalis; with Tig, isolate 27 E. faecalis Basal MICs) was 1.16 and the “Mean FICI” value (E. faecalis; with Tob, isolate 25 E. faecalis Basal MICs) was 0.84. The “Mean FICI” value (E. faecalis; with Tob, isolate 26 E. faecalis Basal MICs) was 0.74, the “Mean FICI” value (E. faecalis; with Tob, isolate 27 E. faecalis Basal MICs) was 0.99 and the “Mean FICI” value (E. faecalis; with Van, isolate 25 E. faecalis Basal MICs) was 1.63. The “Mean FICI” value (E. faecalis; with Van, isolate 26 E. faecalis Basal MICs) was 1.18, the “Mean FICI” value (E. faecalis; with Van, isolate 27 E. faecalis Basal MICs) was 1.38 and the “Mean FICI” value (E. coli; with Col, isolate 4 E. coli Basal MICs) was 1.35. For the same molecule, the “Mean FICI” value (E. coli; with Col, isolate 5 E. coli CTX-M-15) was 1.23, the “Mean FICI” value (E. coli; with Col, isolate 6 E. coli TEM-4) was 1.26 and the “Mean FICI” value (E. coli; with Col, isolate 7 E. coli SHV-12) was 1.66. The “Mean FICI” value (E. coli; with Col, isolate 8 E. coli SHV-2) was 1.54, the “Mean FICI” value (E. coli; with Lev, isolate 5 E. coli CTX-M-15) was 1.05 and the “Mean FICI” value (E. coli; with Lev, isolate 6 E. coli TEM-4) was 1.05. For the same molecule, the “Mean FICI” value (E. coli; with Lev, isolate 7 E. coli SHV-12) was 1.18, the “Mean FICI” value (E. coli; with Lev, isolate 8 E. coli SHV-2) was 1.11 and the “Mean FICI” value (E. coli; with Tig, isolate 4 E. coli Basal MICs) was 1.41. For the same molecule, the “Mean FICI” value (E. coli; with Tig, isolate 5 E. coli CTX-M-15) was 1.12, the “Mean FICI” value (E. coli; with Tig, isolate 6 E. coli TEM-4) was 1.27 and the “Mean FICI” value (E. coli; with Tig, isolate 7 E. coli SHV-12) was 0.95. For the same molecule, the “Mean FICI” value (E. coli; with Tig, isolate 8 E. coli SHV-2) was 1.10, the “Mean FICI” value (E. coli; with Tob, isolate 5 E. coli CTX-M-15) was 1.05 and the “Mean FICI” value (E. coli; with Tob, isolate 6 E. coli TEM-4) was 0.99. The “Mean FICI” value (E. coli; with Tob, isolate 7 E. coli SHV-12) was 1.19, the “Mean FICI” value (E. coli; with Tob, isolate 8 E. coli SHV-2) was 0.91 and the “MIC alone and in combination” value (Gram-positive isolates) was “remained within one doubling dilution in all cases”. For the same molecule, the “activity in neutropenic lung infection model” value (P. aeruginosa [2]; directed ELF fT>MIC regimen, isolates with MICs of 32 μg/mL) was “Activity was observed”, the “activity in neutropenic lung infection model” value (P. aeruginosa [2]; in vivo) was “Efficacy was variable; also recorded: little to no activity” and the “Change log CFU Mean” value (P. aeruginosa [2]; isolate PSA 968, control 0 h 5.98, 24 h 9.76) was 4.45 log CFU. The “Change log CFU Mean” value (P. aeruginosa [2]; isolate PSA 1382, control 0 h 5.91, 24 h 8.64) was 6.42 log CFU, the “Change log CFU Mean” value (P. aeruginosa [2]; isolate PSA 1383, control 0 h 5.77, 24 h 7.29) was 3.73 log CFU and the “Change log CFU Mean” value (P. aeruginosa [2]; isolate PSA 1384, control 0 h 5.86, 24 h 7.61) was 4.4 log CFU. For the same molecule, the “Change log CFU Mean” value (P. aeruginosa [2]; isolate PSA 1386, control 0 h 5.79, 24 h 9.67) was 5.98 log CFU, the “Change log CFU Mean” value (P. aeruginosa [2]; isolate PSA 1387, control 0 h 6.39, 24 h 9.45) was 4.23 log CFU and the “Change log CFU Mean” value (P. aeruginosa [2]; isolate PSA 1388, control 0 h 5.86, 24 h 8.39) was 5.54 log CFU. The “Change log CFU Mean” value (P. aeruginosa [2]; isolate PSA 1389, control 0 h 5.68, 24 h 9.67) was 6.3 log CFU, the “Change log CFU Mean” value (P. aeruginosa [2]; isolate PSA 1394, control 0 h 5.58, 24 h 7.73) was 5.96 log CFU and the MIC (K. pneumoniae [3]; isolate 9 K. pneumoniae Basal MICs, read-out: MIC) was 0.12 µg/mL. The MIC (K. pneumoniae [3]; isolate 10 K. pneumoniae TEM-4, read-out: MIC) was 32 µg/mL, the MIC (K. pneumoniae [3]; isolate 11 K. pneumoniae CTX-M-15, read-out: MIC) was 32 µg/mL and the MIC (K. pneumoniae [3]; isolate 12 K. pneumoniae SHV-12, read-out: MIC) was 64 µg/mL. It also gave an MIC (K. pneumoniae [3]; isolate 13 K. pneumoniae KPC-3) of 128 µg/mL, an MIC (K. pneumoniae [3]; isolate 14 K. pneumoniae KPC-3, read-out: MIC) of 16 µg/mL and an MIC (K. pneumoniae [3]; isolate 15 K. pneumoniae KPC-2, read-out: MIC) of 64 µg/mL. For the same molecule, the MIC (P. aeruginosa [4]; isolate 16 P. aeruginosa Basal MICs, read-out: MIC) was 1 µg/mL, the MIC (P. aeruginosa [4]; isolate 17 P. aeruginosa Derepressed AmpC, read-out: MIC) was 8 µg/mL and the MIC (P. aeruginosa [4]; isolate 18 P. aeruginosa Derepressed AmpC, read-out: MIC) was 64 µg/mL. It also gave an MIC (P. aeruginosa [4]; isolate 19 P. aeruginosa PER, read-out: MIC) of 128 µg/mL, an MIC (P. aeruginosa [4]; isolate 20 P. aeruginosa KPC-2) of 128 µg/mL and an MIC (P. aeruginosa [4]; isolate 21 P. aeruginosa KPC-2, read-out: MIC) of 64 µg/mL.

Reference: US20150374673A1, “Combination Therapy for the Treatment of Nosocomial Pneumonia” (priority 2013, published 2015)
